The source of these data is ChEMBL document CHEMBL5291721, “A preclinical secondary pharmacology resource illuminates target-adverse drug reaction associations of marketed drugs” (Nat Commun, 2023).

Each structure is given as a SMILES string.

In test [1] the target is T1, Alpha-2C adrenergic receptor (Homo sapiens, UniProt P18825).
T1 sequence (P18825 whole entry): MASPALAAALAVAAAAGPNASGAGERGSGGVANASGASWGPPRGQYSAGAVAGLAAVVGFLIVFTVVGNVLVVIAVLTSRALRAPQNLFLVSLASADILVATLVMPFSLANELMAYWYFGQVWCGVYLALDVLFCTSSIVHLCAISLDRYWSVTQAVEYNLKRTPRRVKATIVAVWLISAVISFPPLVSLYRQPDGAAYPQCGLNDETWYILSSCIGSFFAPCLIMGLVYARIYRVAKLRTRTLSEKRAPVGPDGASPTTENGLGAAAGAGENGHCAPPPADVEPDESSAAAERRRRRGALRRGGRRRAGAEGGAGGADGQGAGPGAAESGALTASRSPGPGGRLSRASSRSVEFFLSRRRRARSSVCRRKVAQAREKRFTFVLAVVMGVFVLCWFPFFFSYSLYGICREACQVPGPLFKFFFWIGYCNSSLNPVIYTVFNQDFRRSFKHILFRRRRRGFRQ
The test is classed as functional.

Test [2] deals with Beta-2 adrenergic receptor (Homo sapiens, UniProt P07550).
Test [3] addresses T2, B2 bradykinin receptor (Homo sapiens, UniProt P30411).
T2 sequence (P30411 whole entry): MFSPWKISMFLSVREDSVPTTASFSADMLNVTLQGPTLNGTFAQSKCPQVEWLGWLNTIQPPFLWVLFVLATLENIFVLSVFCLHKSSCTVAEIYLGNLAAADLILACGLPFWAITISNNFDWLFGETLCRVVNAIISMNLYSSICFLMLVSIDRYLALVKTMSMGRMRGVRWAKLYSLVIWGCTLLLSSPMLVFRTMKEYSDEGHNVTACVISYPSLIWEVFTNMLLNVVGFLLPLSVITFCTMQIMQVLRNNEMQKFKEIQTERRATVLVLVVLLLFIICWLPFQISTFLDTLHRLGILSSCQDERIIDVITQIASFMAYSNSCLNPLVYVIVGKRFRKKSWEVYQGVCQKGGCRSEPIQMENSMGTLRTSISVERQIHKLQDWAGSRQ

For test [4], the target named is T3, 5-hydroxytryptamine receptor 1A (Homo sapiens, UniProt P08908).
T3 sequence (P08908 whole entry): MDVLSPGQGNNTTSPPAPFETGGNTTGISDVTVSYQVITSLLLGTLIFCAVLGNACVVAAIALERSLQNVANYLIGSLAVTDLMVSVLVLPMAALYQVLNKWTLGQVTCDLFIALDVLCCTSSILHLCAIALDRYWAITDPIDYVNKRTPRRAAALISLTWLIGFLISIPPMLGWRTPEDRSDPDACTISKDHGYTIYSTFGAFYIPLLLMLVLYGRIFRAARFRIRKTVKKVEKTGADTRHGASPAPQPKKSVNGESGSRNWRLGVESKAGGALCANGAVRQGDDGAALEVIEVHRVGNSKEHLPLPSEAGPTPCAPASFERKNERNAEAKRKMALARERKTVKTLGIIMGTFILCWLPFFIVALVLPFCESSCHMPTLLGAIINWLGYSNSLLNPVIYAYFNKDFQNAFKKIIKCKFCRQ
Format: functional, cell-based.

The target in test [5] is T4, 5-hydroxytryptamine receptor 3A (Homo sapiens, UniProt P46098).
T4 sequence (P46098 whole entry): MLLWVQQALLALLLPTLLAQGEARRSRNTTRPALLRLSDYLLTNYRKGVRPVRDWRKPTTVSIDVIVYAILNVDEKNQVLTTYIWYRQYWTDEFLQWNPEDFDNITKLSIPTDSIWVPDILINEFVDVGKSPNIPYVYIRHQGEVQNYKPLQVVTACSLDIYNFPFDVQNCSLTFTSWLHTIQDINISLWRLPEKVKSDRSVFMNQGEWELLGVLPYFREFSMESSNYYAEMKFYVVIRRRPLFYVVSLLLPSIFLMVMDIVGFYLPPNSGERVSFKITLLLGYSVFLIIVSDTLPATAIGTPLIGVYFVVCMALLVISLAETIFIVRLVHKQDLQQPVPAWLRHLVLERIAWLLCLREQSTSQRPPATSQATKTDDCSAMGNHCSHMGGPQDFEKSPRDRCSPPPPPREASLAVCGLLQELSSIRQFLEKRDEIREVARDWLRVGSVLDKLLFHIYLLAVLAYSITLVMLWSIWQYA
The test is classed as functional.

Test [6] addresses T5, Prostaglandin G/H synthase 1 (Rattus norvegicus, UniProt Q63921).
T5 sequence (Q63921 whole entry): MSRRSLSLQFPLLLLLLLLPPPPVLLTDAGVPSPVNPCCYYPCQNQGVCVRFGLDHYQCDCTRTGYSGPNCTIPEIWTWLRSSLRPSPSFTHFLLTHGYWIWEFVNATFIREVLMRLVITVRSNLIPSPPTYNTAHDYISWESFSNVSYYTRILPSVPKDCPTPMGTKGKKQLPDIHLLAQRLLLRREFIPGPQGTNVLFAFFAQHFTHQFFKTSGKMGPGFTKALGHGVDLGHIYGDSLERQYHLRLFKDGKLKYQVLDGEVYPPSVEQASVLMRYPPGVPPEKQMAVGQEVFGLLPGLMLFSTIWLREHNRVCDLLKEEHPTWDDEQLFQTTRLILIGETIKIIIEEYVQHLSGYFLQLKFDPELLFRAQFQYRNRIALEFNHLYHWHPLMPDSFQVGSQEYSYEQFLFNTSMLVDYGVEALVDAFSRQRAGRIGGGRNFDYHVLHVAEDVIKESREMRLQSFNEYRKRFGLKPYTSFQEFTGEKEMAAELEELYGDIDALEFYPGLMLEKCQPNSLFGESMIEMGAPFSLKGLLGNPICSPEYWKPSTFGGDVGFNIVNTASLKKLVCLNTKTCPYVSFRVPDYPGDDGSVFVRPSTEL
The test is classed as functional.

Test [7] has as its target Sodium-dependent noradrenaline transporter (Homo sapiens, UniProt P23975).
The target in test [8] is Histamine H3 receptor (Homo sapiens, UniProt Q9Y5N1).
The target of test [9] is Voltage-dependent L-type calcium channel subunit alpha-1C (Rattus norvegicus, UniProt P22002). Format: functional.
Also: assay procedure not described here.

Sodium-dependent noradrenaline transporter, sequence (P23975 whole entry): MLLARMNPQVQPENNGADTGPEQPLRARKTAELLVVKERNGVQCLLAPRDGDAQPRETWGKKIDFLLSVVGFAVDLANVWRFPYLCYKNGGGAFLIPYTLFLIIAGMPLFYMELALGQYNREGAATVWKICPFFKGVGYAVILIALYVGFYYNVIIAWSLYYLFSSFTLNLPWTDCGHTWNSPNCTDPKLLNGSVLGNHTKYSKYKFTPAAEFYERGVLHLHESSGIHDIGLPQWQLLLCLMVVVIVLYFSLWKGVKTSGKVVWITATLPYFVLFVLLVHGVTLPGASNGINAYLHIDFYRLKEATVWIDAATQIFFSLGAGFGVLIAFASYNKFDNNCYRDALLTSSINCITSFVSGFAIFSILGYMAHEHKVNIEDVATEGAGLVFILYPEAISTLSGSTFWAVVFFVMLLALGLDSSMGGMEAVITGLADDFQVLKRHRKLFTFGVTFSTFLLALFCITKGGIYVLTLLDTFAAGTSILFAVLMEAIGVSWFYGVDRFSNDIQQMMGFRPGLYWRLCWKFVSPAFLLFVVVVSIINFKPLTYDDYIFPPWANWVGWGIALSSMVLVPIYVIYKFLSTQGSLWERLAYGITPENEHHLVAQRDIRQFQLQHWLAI
Beta-2 adrenergic receptor, sequence (P07550 whole entry): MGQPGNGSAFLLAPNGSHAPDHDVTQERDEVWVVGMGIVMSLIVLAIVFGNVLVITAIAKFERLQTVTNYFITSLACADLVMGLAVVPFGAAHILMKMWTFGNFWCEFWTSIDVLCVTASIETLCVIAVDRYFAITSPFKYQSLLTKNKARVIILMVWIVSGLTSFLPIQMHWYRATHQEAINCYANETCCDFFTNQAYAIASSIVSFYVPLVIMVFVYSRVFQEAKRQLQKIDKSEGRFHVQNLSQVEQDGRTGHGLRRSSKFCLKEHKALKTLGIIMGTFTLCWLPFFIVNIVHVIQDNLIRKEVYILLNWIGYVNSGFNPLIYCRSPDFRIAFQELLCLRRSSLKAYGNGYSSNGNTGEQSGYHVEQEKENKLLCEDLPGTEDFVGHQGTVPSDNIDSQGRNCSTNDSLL
Voltage-dependent L-type calcium channel subunit alpha-1C, sequence (P22002 whole entry): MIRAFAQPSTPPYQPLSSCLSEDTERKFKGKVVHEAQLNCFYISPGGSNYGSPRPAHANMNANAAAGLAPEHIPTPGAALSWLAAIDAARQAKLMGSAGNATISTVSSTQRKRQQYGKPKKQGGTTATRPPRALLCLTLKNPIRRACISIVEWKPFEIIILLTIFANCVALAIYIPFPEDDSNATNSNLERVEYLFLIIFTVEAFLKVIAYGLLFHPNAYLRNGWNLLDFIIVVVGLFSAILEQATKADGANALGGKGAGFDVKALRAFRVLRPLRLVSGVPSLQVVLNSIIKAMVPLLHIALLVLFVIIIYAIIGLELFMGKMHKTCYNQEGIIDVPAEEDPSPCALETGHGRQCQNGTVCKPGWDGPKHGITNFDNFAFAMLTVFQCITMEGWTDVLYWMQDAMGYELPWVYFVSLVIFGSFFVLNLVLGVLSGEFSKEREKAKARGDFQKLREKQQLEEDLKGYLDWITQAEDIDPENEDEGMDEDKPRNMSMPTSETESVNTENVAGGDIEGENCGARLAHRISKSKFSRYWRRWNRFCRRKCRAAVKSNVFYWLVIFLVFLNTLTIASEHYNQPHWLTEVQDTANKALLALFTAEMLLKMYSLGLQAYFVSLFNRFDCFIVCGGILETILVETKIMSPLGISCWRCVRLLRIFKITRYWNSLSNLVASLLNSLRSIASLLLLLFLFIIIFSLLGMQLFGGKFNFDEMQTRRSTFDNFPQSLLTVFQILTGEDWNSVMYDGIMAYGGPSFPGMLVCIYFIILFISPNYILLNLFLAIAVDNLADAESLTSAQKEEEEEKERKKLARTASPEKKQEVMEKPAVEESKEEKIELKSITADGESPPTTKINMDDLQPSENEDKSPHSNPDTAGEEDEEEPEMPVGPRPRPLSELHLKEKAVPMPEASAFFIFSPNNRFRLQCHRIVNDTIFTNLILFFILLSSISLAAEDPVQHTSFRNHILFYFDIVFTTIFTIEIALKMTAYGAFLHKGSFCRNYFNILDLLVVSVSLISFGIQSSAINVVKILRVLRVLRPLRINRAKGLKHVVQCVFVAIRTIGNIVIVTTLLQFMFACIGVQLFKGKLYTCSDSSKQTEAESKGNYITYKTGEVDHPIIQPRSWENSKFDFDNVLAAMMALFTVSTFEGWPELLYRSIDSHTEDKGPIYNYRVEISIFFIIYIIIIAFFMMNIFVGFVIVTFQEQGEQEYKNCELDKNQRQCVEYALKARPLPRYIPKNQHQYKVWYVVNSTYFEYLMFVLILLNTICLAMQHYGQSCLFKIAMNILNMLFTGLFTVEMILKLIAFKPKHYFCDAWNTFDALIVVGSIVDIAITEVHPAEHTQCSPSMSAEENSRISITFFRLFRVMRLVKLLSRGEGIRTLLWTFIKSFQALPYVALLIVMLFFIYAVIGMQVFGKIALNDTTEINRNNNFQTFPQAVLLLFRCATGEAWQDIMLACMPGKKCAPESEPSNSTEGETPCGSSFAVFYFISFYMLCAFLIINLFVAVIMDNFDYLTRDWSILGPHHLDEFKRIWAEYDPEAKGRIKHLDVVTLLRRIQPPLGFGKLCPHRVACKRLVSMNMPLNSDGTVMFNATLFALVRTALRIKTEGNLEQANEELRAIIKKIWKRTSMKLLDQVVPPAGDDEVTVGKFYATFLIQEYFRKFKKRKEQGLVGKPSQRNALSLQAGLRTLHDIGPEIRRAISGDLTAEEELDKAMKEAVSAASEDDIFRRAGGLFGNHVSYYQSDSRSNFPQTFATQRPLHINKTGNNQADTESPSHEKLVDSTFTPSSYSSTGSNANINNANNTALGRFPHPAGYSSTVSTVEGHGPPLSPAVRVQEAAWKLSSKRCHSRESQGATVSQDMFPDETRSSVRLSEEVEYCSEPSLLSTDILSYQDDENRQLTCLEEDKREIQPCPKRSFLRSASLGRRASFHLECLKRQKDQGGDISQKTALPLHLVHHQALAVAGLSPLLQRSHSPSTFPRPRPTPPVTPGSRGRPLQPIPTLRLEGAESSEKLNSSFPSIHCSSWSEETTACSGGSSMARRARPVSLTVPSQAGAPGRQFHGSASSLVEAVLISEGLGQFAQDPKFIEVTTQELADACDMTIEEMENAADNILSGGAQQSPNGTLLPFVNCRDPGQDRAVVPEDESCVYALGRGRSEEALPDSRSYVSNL
Histamine H3 receptor, sequence (Q9Y5N1 whole entry): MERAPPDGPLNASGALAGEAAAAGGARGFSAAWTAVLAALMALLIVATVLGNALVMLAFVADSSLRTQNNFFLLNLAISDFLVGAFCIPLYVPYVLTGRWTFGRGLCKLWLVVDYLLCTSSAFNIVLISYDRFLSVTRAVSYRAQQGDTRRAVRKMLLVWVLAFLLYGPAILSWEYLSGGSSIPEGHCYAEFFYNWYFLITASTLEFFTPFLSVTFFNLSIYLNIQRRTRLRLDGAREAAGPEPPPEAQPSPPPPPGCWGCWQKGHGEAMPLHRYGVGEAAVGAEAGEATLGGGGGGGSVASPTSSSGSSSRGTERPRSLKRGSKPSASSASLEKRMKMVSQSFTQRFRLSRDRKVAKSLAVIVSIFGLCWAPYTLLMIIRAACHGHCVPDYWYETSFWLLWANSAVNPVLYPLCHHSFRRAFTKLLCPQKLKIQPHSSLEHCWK

As for `C[N+]12CCC(CC1)C(OC(=O)C(O)(c1ccccc1)c1ccccc1)C2` (stereo not drawn), the half-maximal activity concentration (AC50) in test [1], in [2], in test [3], in [4], in test [5] and in [6] was over 30 µM each time. Besides, the AC50 in test [7] and in test [8] was over 30 µM throughout.
For `CO/N=C(\C(=O)N[C@@H]1C(=O)N2C(C(=O)O)=CCS[C@H]12)c1csc(N)n1` [CEFTIZOXIME], the AC50 in [1] was over 30 µM; in test [3], over 10 µM; in [4], over 30 µM; in test [6], over 30 µM; in test [7], over 30 µM; in test [8] it was over 30 µM.
Consider `CO/N=C(\C(=O)N[C@@H]1C(=O)N2C(C(=O)O)=C(CSc3nc(=O)c(=O)[nH]n3C)CS[C@H]12)c1csc(N)n1` [CEFTRIAXONE], for which the AC50 in [1], in test [3], in [4], in [5], in [6] and in test [7] was over 30 µM throughout. This compound also gave a half-maximal activity concentration (AC50) in [8] of over 30 µM.
Take `CC(C)NC[C@H](O)COc1ccc(CC(N)=O)cc1` [ESATENOLOL]: the AC50 in [1] is over 10 µM; in test [3] it was over 30 µM; in [4], over 10 µM; in test [5], over 10 µM; in test [6], over 30 µM; in test [7], over 10 µM.
With `O=C(NCCO[N+](=O)[O-])c1cccnc1` [NICORANDIL], the AC50 in test [1], in [3], in test [4], in test [5], in test [6] and in test [7] was over 30 µM throughout. Besides, the concentration at half-maximal activity (AC50) in test [8] was over 30 µM.
For `CO[C@H]1C[C@H](O[C@H]2CC[C@@]3(C)[C@H](CC[C@@H]4[C@@H]3CC[C@]3(C)[C@@H](C5=CC(=O)OC5)[C@@H](OC(C)=O)C[C@]43O)C2)O[C@@H](C)[C@@H]1O` [OLEANDRIN], the AC50 in [1], in [4] and in [5] was over 30 µM throughout.
Turning to `O=c1[nH]c2ccccc2n1CCCN1CCN(C(c2ccccc2)c2ccccc2)CC1` [OXATOMIDE], the concentration at half-maximal activity (AC50) in [1] was 0.89 µM; in [3], over 30 µM; in test [4], over 30 µM; in test [5], over 30 µM; in test [6], over 30 µM; in test [7], 3.2 µM. Also, the concentration at half-maximal activity (AC50) in test [8] is over 30 µM.
In the case of `C[C@]12C/C(=C/O)C(=O)C[C@@H]1CC[C@@H]1[C@@H]2CC[C@@]2(C)[C@H]1CC[C@]2(C)O` [OXYMETHOLONE], the AC50 was over 30 µM in [1]; over 30 µM in test [2]; over 30 µM in test [3]; over 30 µM in test [4]; over 30 µM in [5]; 19 µM in test [6]. Besides, the concentration at half-maximal activity (AC50) in test [7] and in test [8] was over 30 µM throughout.
As for `COc1cc2[nH]c(C)c(CCN3CCN(c4ccccc4)CC3)c2cc1OC` [OXYPERTINE], the concentration at half-maximal activity (AC50) in test [1] is 1.4 µM; in test [3], over 30 µM; in test [4], over 30 µM; in test [5], over 30 µM; in [6] it was over 30 µM; in test [7] it was 14 µM. The compound also returned a concentration at half-maximal activity (AC50) in test [8] of over 30 µM.
In the case of `c1ccc(C2(N3CCCCC3)CCCCC2)cc1` [PHENCYCLIDINE], the AC50 was over 30 µM in test [1]; over 30 µM in [3]; over 30 µM in test [4]; over 30 µM in test [5]; over 30 µM in [6]; 12 µM in test [7]. The same compound gave an AC50 in [8] of over 30 µM.
In the case of `COc1cc(C(=O)OCc2cccc(COC(=O)c3cc(OC)c(OC)c(OC)c3)n2)cc(OC)c1OC` [PIROZADIL], the AC50 in test [1], in [3], in [4], in [5], in test [6] and in [7] was over 30 µM throughout. The same compound displayed an AC50 in test [8] of over 30 µM.
Consider `O=c1c(O)c(-c2ccc(O)c(O)c2)oc2cc(O)cc(O)c12` [QUERCETIN], for which the AC50 is over 10 µM in test [1]; over 30 µM in [3]; over 10 µM in [9]; over 30 µM in test [4]; over 30 µM in test [5]; over 30 µM in test [6]. Moreover, the AC50 in test [8] is over 10 µM.
Take `CCN1CCCC1CNC(=O)c1cc(S(=O)(=O)CC)ccc1OC` (stereo not drawn) [SULTOPRIDE]: the AC50 was 4.5 µM in test [1]; over 30 µM in test [2]; over 30 µM in test [3]; over 30 µM in test [4]; over 30 µM in [5]; over 30 µM in test [6]. Also, the values for the AC50 in test [7] and in [8] were over 30 µM and 22 µM, respectively.
For `C=CCN1CCc2nc(N)sc2CC1` [TALIPEXOLE], the AC50 in [1] was 0.71 µM; in [3] it was over 30 µM; in test [9], over 30 µM; in test [4], over 30 µM; in test [5] it was over 30 µM; in test [6], over 30 µM. The half-maximal activity concentration (AC50) in test [7] was over 30 µM; in [8] it was 3.3 µM.
Regarding `CCOC(=O)[C@@H](N)Cc1ccc(-c2cc(O[C@H](c3ccc(Cl)cc3-n3ccc(C)n3)C(F)(F)F)nc(N)n2)cc1` [TELOTRISTAT ETHYL], the concentration at half-maximal activity (AC50) in test [1] was 22 µM; in test [3], over 30 µM; in [5], 24 µM; in test [6] it was over 30 µM; in test [7], 16 µM; in test [8], over 30 µM.
In the case of `CC(C)(C)NCC(O)c1ccccc1Cl` (stereo not drawn) [TULOBUTEROL], the AC50 in test [1], in test [3], in test [9], in test [4], in test [5] and in test [6] was over 30 µM in each case. Also, the AC50 in [7] and in test [8] was over 30 µM throughout.
Regarding `CCCCCCCC(=O)CC[C@@H]1[C@@H](C/C=C\CCCC(=O)OC(C)C)[C@@H](O)C[C@H]1O` [UNOPROSTONE ISOPROPYL], the half-maximal activity concentration (AC50) in [1] was 13 µM; in test [6] it was over 30 µM; in [7], 7.2 µM.

A word on the AC50: it is the concentration giving half of the maximal activity seen.
